Laboratory results from patent US20070033061A1 (priority 2005, published 2007).
Values after ≈ are worked out from the molar mass of the structure shown.

How the values were obtained:
Format in all cases: cell-based
[1] = tested on: membrane permeabilized E. coli; settings: for enhancement of the activity of ciprofloxacin: at 25 μM
E. coli ΔrecB strains = tested on: E. coli ΔrecB strains
[2] = tested on: E. coli strain MG1655 and mutated strains; assay: microbe, parasite or virus in culture
[3] = tested on: E. coli MG1655 loss of function strains; assay: microbe, parasite or virus in culture
E. coli wild-type = tested on: E. coli wild-type
[4] = tested on: E. coli strains RTC0141-RTC0148
[5] = tested on: P. aeruginosa strains RTC1014-RTC1019

Nc1ccc2noc3c2c1C(=O)c1ccccc1-3 [Formula Ia]
MIC shift in ciprofloxacin responsiveness [1]: 10 ×

NCCCCCCNc1ccnc2cc(Cl)ccc12 [Formula III]
ciprofloxacin sensitization [1]: enhanced ciprofloxacin sensitivity

CO[C@@]12[C@H](COC(N)=O)C3=C(C(=O)C(C)=C(N)C3=O)N1C[C@@H]1N[C@@H]12 [Mitomycin C]
Mitomycin C MIC lower compared to recB+ strains (E. coli ΔrecB strains): about 8 fold

Cn1c2ccccc2n2c3cnccc3c(=O)c(C#N)c12 [Formula IIc]
enhancement of the activity of ciprofloxacin [1]: enhanced the activity of ciprofloxacin

Cn1c2ccccc2n2c3ncccc3c(=O)c(C#N)c12 [Formula IIb]
enhancement of the activity of ciprofloxacin [1]: enhanced the activity of ciprofloxacin

O=C(O)c1cn(C2CC2)c2cc(N3CCNCC3)c(F)cc2c1=O [ciprofloxacin]
ciprofloxacin MIC, gyrA S83Δ [2]: 0.25 µg/mL
MIC ([2]; Escherichia coli, MG1655, read-out: ciprofloxacin MIC): < 0.001 µg/mL
ciprofloxacin MIC, gyrA S83Δ [3]: 0.25 µg/mL
MIC ([3]; Escherichia coli, MG1655, read-out: ciprofloxacin MIC, gyrA S83L): 0.45 µg/mL (≈ 1.36 µM)
cells killed (E. coli wild-type): 99%

B1: lambda gam: protein used by λ phage to inhibit E. coli RecB; overexpressed from an arabinose-inducible vector (protein, UniProt P03702 1-138, looked up)
Host-nuclease inhibitor …: MDINTETEIKQKHSLTPFPVFLISPAFRGRYFHSYFRSSAMNAYYIQDRLEAQSWARHYQQLAREEKEAELADDMEKGLPQHLFESLCIDHLQRHGASKKSITRAFDDDVEFQERMAEHIRYMVETIAHHQVDIDSEV
decrease in the ciprofloxacin IC50 on overexpression of lambda gam [4]: 5-8 fold
effect of lambda gam overexpression on ciprofloxacin sensitivity [4]: no effect
decrease in the ciprofloxacin MIC on overexpression of lambda gam [5]: 2-4 fold
effect of lambda gam overexpression on ciprofloxacin sensitivity [5]: no effect
